According to PubChem BioAssay AID248 (DTP/NCI, 2004):
“And” between values parts separate entries of the source, which are not always exact repeats. Equal entries are not always repeated. Toxic doses and inconclusive results are not listed. Rule as the data show it: active = T/C of 150% or more; inactive = T/C below 125%.

Tested on: L1210 leukemia ip in BDF1 mice, survival T/C
Experiment: NCI In Vivo Anticancer Drug Screen. Data for tumor model L1210 Leukemia (intraperitoneal) in B6D2F1 (BDF1) mice
Settings: higher = longer survival
Outline: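 Mice bearing the transplanted tumor received compound or vehicle. Survival of the treated group was divided by that of the vehicle-treated control group to give the ratio.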

[1] = endpoint: mean survival time, dose: 100.0 mg/kg/injection, schedule: Q01DX001 (ip), vehicle: Klucel (hydroxypropylcellulose) (HPC)
[2] = endpoint: mean survival time, dose: 200.0 mg/kg/injection, schedule: Q01DX001 (ip), vehicle: Klucel (hydroxypropylcellulose) (HPC)
[3] = endpoint: mean survival time, dose: 400.0 mg/kg/injection, schedule: Q01DX001 (ip), vehicle: Klucel (hydroxypropylcellulose) (HPC)
[4] = endpoint: mean survival time, dose: 100.0 mg/kg/injection, schedule: Q01DX001 (ip), vehicle: saline with Tween-80
[5] = endpoint: mean survival time, dose: 200.0 mg/kg/injection, schedule: Q01DX001 (ip), vehicle: saline with Tween-80
[6] = endpoint: mean survival time, dose: 50.0 mg/kg/injection, schedule: Q01DX001 (ip), vehicle: saline
[7] = endpoint: mean survival time, dose: 100.0 mg/kg/injection, schedule: Q01DX001 (ip), vehicle: saline
[8] = endpoint: mean survival time, dose: 100.0 mg/kg/injection, schedule: Q04DX003 (ip), vehicle: saline
[9] = endpoint: mean survival time, dose: 200.0 mg/kg/injection, schedule: Q01DX001 (ip), vehicle: saline
[10] = endpoint: mean survival time, dose: 400.0 mg/kg/injection, schedule: Q01DX001 (ip), vehicle: saline
[11] = endpoint: mean survival time, dose: 25.0 mg/kg/injection, schedule: Q04DX003 (ip), vehicle: saline
[12] = endpoint: mean survival time, dose: 50.0 mg/kg/injection, schedule: Q04DX003 (ip), vehicle: saline
[13] = endpoint: mean survival time, dose: 100.0 mg/kg/injection, schedule: Q01DX009 (ip), vehicle: saline with Tween-80
[14] = endpoint: mean survival time, dose: 50.0 mg/kg/injection, schedule: Q01DX009 (ip), vehicle: saline with Tween-80
[15] = endpoint: mean survival time, dose: 100.0 mg/kg/injection, schedule: Q04DX003 (ip), vehicle: saline with Tween-80
[16] = endpoint: mean survival time, dose: 200.0 mg/kg/injection, schedule: Q04DX003 (ip), vehicle: saline with Tween-80

Measured: T/C

CSc1cccc[n+]1[O-]
inactive: endpoint: mean survival time, dose: 100.0 mg/kg/injection, schedule: Q01DX009 (ip), vehicle: saline 105 % of control | endpoint: mean survival time, dose: 100.0 mg/kg/injection, schedule: Q04DX002 (ip), vehicle: saline 103 % of control and 108 % of control | endpoint: mean survival time, dose: 200.0 mg/kg/injection, schedule: Q01DX009 (ip), vehicle: saline 108 % of control | endpoint: mean survival time, dose: 200.0 mg/kg/injection, schedule: Q04DX002 (ip), vehicle: saline 105 % of control | endpoint: mean survival time, dose: 400.0 mg/kg/injection, schedule: Q01DX009 (ip), vehicle: saline 101 % of control | endpoint: mean survival time, dose: 400.0 mg/kg/injection, schedule: Q04DX002 (ip), vehicle: saline 108 % of control and 118 % of control

CCS(=O)(=O)C(S(=O)(=O)CC)S(=O)(=O)CC
inactive: [1] 102 % of control | [2] 91 % of control | [3] 96 % of control

CCCCCCCC(=O)N1C(=O)CCC1C(=O)NCC(=O)NCC(=O)OCc1ccccc1 (stereo not drawn)
inactive: [1] 95 % of control | [2] 98 % of control | [3] 91 % of control

CS(=O)(=O)c1nc(Cl)c(Cl)[nH]1
inactive: [4] 100 % of control | [5] 102 % of control | endpoint: mean survival time, dose: 400.0 mg/kg/injection, schedule: Q01DX001 (ip), vehicle: saline with Tween-80 104 % of control

O=S(=O)(NC1CCCCC1)c1ccccc1
inactive: endpoint: mean survival time, dose: 75.0 mg/kg/injection, schedule: Q01DX009 (ip), vehicle: saline with Tween-80 94 % of control | endpoint: mean survival time, dose: 150.0 mg/kg/injection, schedule: Q01DX009 (ip), vehicle: saline with Tween-80 95 % of control | endpoint: mean survival time, dose: 300.0 mg/kg/injection, schedule: Q01DX009 (ip), vehicle: saline with Tween-80 97 % of control

CCOC(C)=N
inactive: [6] 100 % of control | endpoint: mean survival time, dose: 50.0 mg/kg/injection, schedule: Q01DX008 (ip), vehicle: saline 102 % of control | [7] 89 % of control and 97 % of control | endpoint: mean survival time, dose: 100.0 mg/kg/injection, schedule: Q01DX008 (ip), vehicle: saline 112 % of control | [8] 107 % of control | [9] 105 % of control and 111 % of control | endpoint: mean survival time, dose: 200.0 mg/kg/injection, schedule: Q01DX008 (ip), vehicle: saline 115 % of control | endpoint: mean survival time, dose: 200.0 mg/kg/injection, schedule: Q04DX003 (ip), vehicle: saline 107 % of control | [10] 115 % of control | endpoint: mean survival time, dose: 400.0 mg/kg/injection, schedule: Q04DX003 (ip), vehicle: saline 110 % of control

CNC1(c2ccccc2)CC2CCC(C2)C1=O (stereo not drawn)
inactive: [11] 100 % of control | [12] 86 % of control | [7] 102 % of control

CCC1(c2ccccc2)C(=O)NC(=O)NC1=O
inactive: endpoint: mean survival time, dose: 75.0 mg/kg/injection, schedule: Q01DX001 (ip), vehicle: saline 105 % of control | endpoint: mean survival time, dose: 150.0 mg/kg/injection, schedule: Q01DX001 (ip), vehicle: saline 100 % of control | endpoint: median survival time, dose: 25.0 mg/kg/injection, schedule: Q12HX034 (sc), vehicle: saline 106 % of control | endpoint: median survival time, dose: 50.0 mg/kg/injection, schedule: Q12HX034 (sc), vehicle: saline 100 % of control

NNCCc1ccccc1
inactive: endpoint: mean survival time, dose: 6.25 mg/kg/injection, schedule: Q01DX009 (ip), vehicle: saline 105 % of control | endpoint: mean survival time, dose: 12.5 mg/kg/injection, schedule: Q01DX009 (ip), vehicle: saline 101 % of control | endpoint: mean survival time, dose: 25.0 mg/kg/injection, schedule: Q01DX009 (ip), vehicle: saline 95 % of control | [11] 120 % of control | endpoint: mean survival time, dose: 50.0 mg/kg/injection, schedule: Q01DX009 (ip), vehicle: saline 104 % of control | [12] 106 % of control | [8] 111 % of control

C[C@]12CC[C@H](O)C[C@@]1(O)CC[C@@H]1[C@@H]2CC[C@]2(C)[C@@H](c3ccc(=O)oc3)CC[C@]12O
inactive: endpoint: mean survival time, dose: 1.25 mg/kg/injection, schedule: Q01DX009 (ip), vehicle: Klucel (hydroxypropylcellulose) (HPC) 107 % of control | endpoint: mean survival time, dose: 2.5 mg/kg/injection, schedule: Q01DX009 (ip), vehicle: Klucel (hydroxypropylcellulose) (HPC) 91 % of control | endpoint: mean survival time, dose: 5.0 mg/kg/injection, schedule: Q01DX009 (ip), vehicle: Klucel (hydroxypropylcellulose) (HPC) 96 % of control | endpoint: mean survival time, dose: 10.0 mg/kg/injection, schedule: Q01DX009 (ip), vehicle: Klucel (hydroxypropylcellulose) (HPC) 102 % of control | endpoint: mean survival time, dose: 20.0 mg/kg/injection, schedule: Q01DX009 (ip), vehicle: Klucel (hydroxypropylcellulose) (HPC) 98 % of control | endpoint: mean survival time, dose: 25.0 mg/kg/injection, schedule: Q01DX009 (ip), vehicle: carboxymethylcellulose (CMC) 106 % of control | endpoint: mean survival time, dose: 50.0 mg/kg/injection, schedule: Q01DX001 (ip), vehicle: carboxymethylcellulose (CMC) 104 % of control | endpoint: mean survival time, dose: 50.0 mg/kg/injection, schedule: Q01DX009 (ip), vehicle: carboxymethylcellulose (CMC) 92 % of control | endpoint: mean survival time, dose: 100.0 mg/kg/injection, schedule: Q01DX001 (ip), vehicle: carboxymethylcellulose (CMC) 109 % of control

Oc1ccc(C(O)(c2ccccc2)c2ccc(O)c3ccccc23)c2ccccc12
inactive: [13] 96 % of control | endpoint: mean survival time, dose: 200.0 mg/kg/injection, schedule: Q01DX009 (ip), vehicle: saline with Tween-80 91 % of control

CC(C)(C)CC(C)(C)NCC#N
inactive: endpoint: mean survival time, dose: 6.25 mg/kg/injection, schedule: Q04DX003 (ip), vehicle: Klucel (hydroxypropylcellulose) (HPC) 92 % of control | endpoint: mean survival time, dose: 12.5 mg/kg/injection, schedule: Q04DX003 (ip), vehicle: Klucel (hydroxypropylcellulose) (HPC) 95 % of control | endpoint: mean survival time, dose: 25.0 mg/kg/injection, schedule: Q04DX003 (ip), vehicle: Klucel (hydroxypropylcellulose) (HPC) 92 % of control and 96 % of control

CC(C)(CO)C(=O)O
inactive: [7] 101 % of control | [9] 98 % of control | [10] 106 % of control

CCCCCCCC(=N)OCC
inactive: [14] 97 % of control | endpoint: mean survival time, dose: 50.0 mg/kg/injection, schedule: Q04DX003 (ip), vehicle: saline with Tween-80 104 % of control | [4] 94 % of control | [13] 110 % of control | [15] 93 % of control | [5] 104 % of control | [16] 87 % of control

CCCC(=O)CC(=O)CC(C)C
inactive: [6] 100 % of control | [7] 94 % of control | [9] 107 % of control | [10] 94 % of control

Cc1c(C)c2c(c(C)c1O)CCC(=O)O2
inactive: [15] 91 % of control | [16] 92 % of control | endpoint: mean survival time, dose: 400.0 mg/kg/injection, schedule: Q04DX003 (ip), vehicle: saline with Tween-80 94 % of control

CC(CCc1ccccc1)NN (stereo not drawn)
inactive: endpoint: mean survival time, dose: 3.12 mg/kg/injection, schedule: Q01DX009 (ip), vehicle: saline with Tween-80 98 % of control | endpoint: mean survival time, dose: 6.25 mg/kg/injection, schedule: Q01DX009 (ip), vehicle: saline with Tween-80 96 % of control | endpoint: mean survival time, dose: 12.5 mg/kg/injection, schedule: Q01DX009 (ip), vehicle: saline with Tween-80 90 % of control | endpoint: mean survival time, dose: 25.0 mg/kg/injection, schedule: Q01DX009 (ip), vehicle: saline with Tween-80 96 % of control | [11] 100 % of control | [14] 91 % of control | [12] 100 % of control

Nc1ncns1
inactive: endpoint: mean survival time, dose: 66.0 mg/kg/injection, schedule: Q04DX003 (ip), vehicle: saline 104 % of control | [8] 117 % of control | endpoint: mean survival time, dose: 150.0 mg/kg/injection, schedule: Q04DX003 (ip), vehicle: saline 120 % of control
